BigSolDB 2.1

C=CC(=O)NC(C)(C)CC(C)=O
Settings | solubility (mole fraction)
in 2-butanone, 272.05 K | 0.229
in 2-butanone, 278.25 K | 0.276
in 2-butanone, 283.25 K | 0.321
in 2-butanone, 288.45 K | 0.373
in 2-butanone, 293.35 K | 0.424
in 2-butanone, 298.15 K | 0.484
in 2-butanone, 303.25 K | 0.551
in 2-butanone, 308.15 K | 0.623
in 2-butanone, 313.15 K | 0.704
in 2-butanone, 318.15 K | 0.79
in 2-butanone, 323.15 K | 0.88
in 2-pentanone, 272.05 K | 0.2
in 2-pentanone, 278.25 K | 0.245
in 2-pentanone, 283.25 K | 0.285
in 2-pentanone, 288.45 K | 0.334
in 2-pentanone, 293.35 K | 0.385
in 2-pentanone, 298.15 K | 0.442
in 2-pentanone, 303.25 K | 0.509
in 2-pentanone, 308.15 K | 0.581
in 2-pentanone, 313.15 K | 0.658
in 2-pentanone, 318.15 K | 0.747
in 2-pentanone, 323.15 K | 0.844
in acetone, 272.05 K | 0.207
in acetone, 278.25 K | 0.252
in acetone, 283.25 K | 0.294
in acetone, 288.45 K | 0.342
in acetone, 293.35 K | 0.394
in acetone, 298.15 K | 0.45
in acetone, 303.25 K | 0.515
in acetone, 308.15 K | 0.584
in acetone, 313.15 K | 0.66
in acetone, 318.15 K | 0.746
in acetone, 323.15 K | 0.839
in ethanol, 272.15 K | 0.186
in ethanol, 278.25 K | 0.231
in ethanol, 283.15 K | 0.271
in ethanol, 288.15 K | 0.318
in ethanol, 293.35 K | 0.374
in ethanol, 297.65 K | 0.427
in ethanol, 303.15 K | 0.5
in ethanol, 308.15 K | 0.576
in ethanol, 313.65 K | 0.671
in ethanol, 318.85 K | 0.767
in ethanol, 323.65 K | 0.867
in ethyl acetate, 272.05 K | 0.166
in ethyl acetate, 278.25 K | 0.208
in ethyl acetate, 283.25 K | 0.249
in ethyl acetate, 288.45 K | 0.299
in ethyl acetate, 293.35 K | 0.351
in ethyl acetate, 298.15 K | 0.411
in ethyl acetate, 303.25 K | 0.481
in ethyl acetate, 308.15 K | 0.558
in ethyl acetate, 313.15 K | 0.645
in ethyl acetate, 318.15 K | 0.745
in ethyl acetate, 323.15 K | 0.85
in ethyl formate, 272.05 K | 0.186
in ethyl formate, 278.25 K | 0.23
in ethyl formate, 283.25 K | 0.271
in ethyl formate, 288.45 K | 0.321
in ethyl formate, 293.35 K | 0.376
in ethyl formate, 298.15 K | 0.435
in ethyl formate, 303.25 K | 0.506
in ethyl formate, 308.15 K | 0.575
in ethyl formate, 313.15 K | 0.659
in ethyl formate, 318.15 K | 0.754
in ethyl formate, 323.15 K | 0.859
in isobutanol, 272.05 K | 0.212
in isobutanol, 278.25 K | 0.258
in isobutanol, 283.25 K | 0.301
in isobutanol, 288.45 K | 0.351
in isobutanol, 293.35 K | 0.403
in isobutanol, 298.15 K | 0.462
in isobutanol, 303.25 K | 0.529
in isobutanol, 308.15 K | 0.601
in isobutanol, 313.15 K | 0.68
in isobutanol, 318.15 K | 0.767
in isobutanol, 323.15 K | 0.866
in isopentanol, 272.15 K | 0.154
in isopentanol, 278.25 K | 0.197
in isopentanol, 283.15 K | 0.24
in isopentanol, 288.15 K | 0.29
in isopentanol, 293.35 K | 0.352
in isopentanol, 297.65 K | 0.411
in isopentanol, 303.15 K | 0.495
in isopentanol, 308.15 K | 0.585
in isopentanol, 313.65 K | 0.7
in isopentanol, 318.85 K | 0.82
in isopentanol, 323.65 K | 0.955
in isopropanol, 272.15 K | 0.155
in isopropanol, 278.25 K | 0.197
in isopropanol, 283.15 K | 0.238
in isopropanol, 288.15 K | 0.286
in isopropanol, 293.35 K | 0.343
in isopropanol, 297.65 K | 0.398
in isopropanol, 303.15 K | 0.479
in isopropanol, 308.15 K | 0.562
in isopropanol, 313.65 K | 0.667
in isopropanol, 318.85 K | 0.777
in isopropanol, 323.65 K | 0.898
in methanol, 272.15 K | 0.241
in methanol, 278.25 K | 0.287
in methanol, 283.15 K | 0.327
in methanol, 288.15 K | 0.371
in methanol, 293.35 K | 0.422
in methanol, 297.65 K | 0.468
in methanol, 303.15 K | 0.531
in methanol, 308.15 K | 0.594
in methanol, 313.65 K | 0.667
in methanol, 318.85 K | 0.746
in methanol, 323.65 K | 0.823
in methyl acetate, 272.05 K | 0.206
in methyl acetate, 278.25 K | 0.253
in methyl acetate, 283.25 K | 0.294
in methyl acetate, 288.45 K | 0.343
in methyl acetate, 293.35 K | 0.399
in methyl acetate, 298.15 K | 0.455
in methyl acetate, 303.25 K | 0.526
in methyl acetate, 308.15 K | 0.6
in methyl acetate, 313.15 K | 0.68
in methyl acetate, 318.15 K | 0.769
in methyl acetate, 323.15 K | 0.869
in n-butanol, 272.15 K | 0.169
in n-butanol, 278.25 K | 0.213
in n-butanol, 283.15 K | 0.253
in n-butanol, 288.15 K | 0.303
in n-butanol, 293.35 K | 0.362
in n-butanol, 297.65 K | 0.417
in n-butanol, 303.15 K | 0.496
in n-butanol, 308.15 K | 0.579
in n-butanol, 313.65 K | 0.681
in n-butanol, 318.85 K | 0.793
in n-butanol, 323.65 K | 0.908
in n-hexanol, 272.15 K | 0.151
in n-hexanol, 278.25 K | 0.194
in n-hexanol, 283.15 K | 0.236
in n-hexanol, 288.15 K | 0.286
in n-hexanol, 293.35 K | 0.346
in n-hexanol, 297.65 K | 0.406
in n-hexanol, 303.15 K | 0.491
in n-hexanol, 308.15 K | 0.581
in n-hexanol, 313.65 K | 0.696
in n-hexanol, 318.85 K | 0.82
in n-hexanol, 323.65 K | 0.953
in n-pentanol, 272.15 K | 0.148
in n-pentanol, 278.25 K | 0.189
in n-pentanol, 283.15 K | 0.229
in n-pentanol, 288.15 K | 0.276
in n-pentanol, 293.35 K | 0.336
in n-pentanol, 297.65 K | 0.391
in n-pentanol, 303.15 K | 0.469
in n-pentanol, 308.15 K | 0.553
in n-pentanol, 313.65 K | 0.66
in n-pentanol, 318.85 K | 0.775
in n-pentanol, 323.65 K | 0.896
in n-propanol, 272.15 K | 0.18
in n-propanol, 278.25 K | 0.226
in n-propanol, 283.15 K | 0.269
in n-propanol, 288.15 K | 0.32
in n-propanol, 293.35 K | 0.381
in n-propanol, 297.65 K | 0.437
in n-propanol, 303.15 K | 0.52
in n-propanol, 308.15 K | 0.605
in n-propanol, 313.65 K | 0.71
in n-propanol, 318.85 K | 0.819
in n-propanol, 323.65 K | 0.937
